Data taken from patent US4647693A, “Antibiotics DO-248-A and B and process for preparing the same” (Shionogi & Co., Ltd., priority 1984, dated 1987).
Converted amounts (≈) assume the structure as drawn.

How the values were obtained:
[1] = system: M. tuberculosis R-18 (Kanamycin and rifanpicin resistant strain); assay: MIC, two-fold dilution, Dubos Tween albumin liquid medium; type: cell-based; conditions: Mycobacterium tuberculosis, 336 h, read-out: minimal inhibitory concentration (MIC)
[2] = system: M. tuberculosis R-15 (Rifanpicin resistant strain); assay: as above; type: cell-based; conditions: Mycobacterium tuberculosis, 336 h, read-out: minimal inhibitory concentration (MIC)

Row | SMILES | MIC [1] [mg/L] | MIC [2] [mg/L]
1 | CC(C)c1c(O)cc(C(NC(=N)N)C(=O)NCC(=O)O)cc1O (stereo not drawn) [DO-248-A, N-(α-guanidino-3,5-dihydroxy-4-isopropylphenylacetyl)glycine] | 0.025 (≈ 0.0771 µM) | 0.1 (≈ 0.308 µM)
2 | NC[C@H]1O[C@H](O[C@H]2[C@H](O)[C@@H](O[C@H]3O[C@H](CO)[C@@H](O)[C@H](N)[C@H]3O)[C@H](N)C[C@@H]2N)[C@H](O)[C@@H](O)[C@@H]1O [KM, kanamycin] | > 25 | < 0.001
3 | CO[C@H]1/C=C/O[C@@]2(C)Oc3c(C)c(O)c4c(O)c(c(/C=N/N5CCN(C)CC5)c(O)c4c3C2=O)NC(=O)/C(C)=C\C=C\[C@H](C)[C@H](O)[C@@H](C)[C@@H](O)[C@@H](C)[C@H](OC(C)=O)[C@@H]1C [RFP, rifampicin] | > 25 | > 25
